{"source": "patent US8791155B2", "about": "“Chroman derivatives” (Edison Pharmaceuticals, Inc., priority 2003, dated 2014)", "target": "T1, human recombinant 5-lipoxygenase (Homo sapiens, UniProt P09917)", "T1 construct": "purchased Cayman 60402", "T1 sequence (P09917 1-674)": "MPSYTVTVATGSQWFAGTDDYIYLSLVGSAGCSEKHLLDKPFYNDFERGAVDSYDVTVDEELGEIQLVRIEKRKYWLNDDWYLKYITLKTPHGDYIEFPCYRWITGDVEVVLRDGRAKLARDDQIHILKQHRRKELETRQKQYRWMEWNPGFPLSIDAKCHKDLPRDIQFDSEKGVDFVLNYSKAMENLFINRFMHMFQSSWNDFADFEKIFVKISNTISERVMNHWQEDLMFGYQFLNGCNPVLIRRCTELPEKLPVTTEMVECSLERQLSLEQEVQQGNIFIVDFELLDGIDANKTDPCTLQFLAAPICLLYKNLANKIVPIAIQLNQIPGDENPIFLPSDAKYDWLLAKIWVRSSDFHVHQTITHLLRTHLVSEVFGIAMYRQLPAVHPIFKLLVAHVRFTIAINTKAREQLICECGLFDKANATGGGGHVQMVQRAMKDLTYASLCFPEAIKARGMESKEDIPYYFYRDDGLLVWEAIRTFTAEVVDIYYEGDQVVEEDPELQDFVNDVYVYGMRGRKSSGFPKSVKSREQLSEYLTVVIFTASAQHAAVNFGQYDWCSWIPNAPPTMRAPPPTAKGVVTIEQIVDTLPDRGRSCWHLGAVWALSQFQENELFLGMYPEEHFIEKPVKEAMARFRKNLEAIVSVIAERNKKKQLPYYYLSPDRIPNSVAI", "test": "5-Lipoxygenase enzyme assay", "format": "biochemical", "conditions": "70 μM arachidonic acid, pH 7.4, 10 minute incubation; read-out: IC50, inhibition of 5-Lipoxygenase"}
{"smiles": "C=CCSCc1c(O)c(C)c(C)c2c1CCC(C)(C)O2", "note": "[5-Allylsulfanylmethyl-2,2,7,8-tetramethyl-chroman-6-ol]", "values": [{"measurement": "IC50", "result": "< 1000", "unit": "nM"}]}
{"smiles": "Cc1c(C)c2c(c(C)c1O)CCC(C)(C=C(Br)Br)O2", "note": "(centres unmarked) [2-(2,2-Dibromo-vinyl)-2,5,7,8-tetramethyl-chroman-6-ol]", "values": [{"measurement": "IC50", "result": "< 1000", "unit": "nM"}]}
